In PubChem BioAssay (NCI):
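48-hour exposure; five concentrations; linearly interpolated endpoints. TGI: concentration producing complete growth inhibition.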

Key:
Assay in all cases: NCI anticancer screen, dose series, 48 h
[1] = tested on: HOP-62 NSCLC
[2] = tested on: 786-0 renal
[3] = tested on: SN12C renal
[4] = tested on: OVCAR-3 ovarian
[5] = tested on: SF-539 CNS
[6] = tested on: RPMI-8226 leukemia
[7] = tested on: SK-MEL-28 melanoma
[8] = tested on: NCI-H522 lung
[9] = tested on: HCT-116 colon
[10] = tested on: SF-295 CNS

CC(C)C(/C=C/c1ccccc1)=N\NC(=S)NN
TGI [1]: > 100 µM | TGI [2]: > 100 µM | TGI [3]: > 100 µM | TGI [4]: > 88.8 µM | TGI [5]: > 100 µM | TGI [6]: > 100 µM | TGI [7]: > 100 µM | TGI [8]: > 89.3 µM | TGI [9]: > 100 µM | TGI [10]: > 100 µM

CN1CCN(c2c(O)c3c(c(O)c2Cl)C(=O)C=CC3=O)CC1
TGI [1]: 3.36 µM | TGI [2]: 0.718 µM | TGI [3]: 2.1 µM | TGI [4]: 1.47 µM | TGI [5]: 2.32 µM | TGI [6]: 2.34 µM | TGI [7]: 2.51 µM | TGI [8]: 0.765 µM | TGI [9]: 0.51 µM | TGI [10]: 3.22 µM

Cc1nn(C(=O)c2ccc(Cl)cc2)c2c1C(c1ccco1)SC(N)=N2 (stereo not given)
TGI [1]: > 10 µM | TGI [2]: > 10 µM | TGI [3]: > 10 µM | TGI [4]: > 10 µM | TGI [5]: > 10 µM | TGI [6]: > 10 µM | TGI [7]: > 10 µM | TGI [8]: > 10 µM | TGI [9]: > 10 µM | TGI [10]: > 10 µM

Cc1oc2c(C)c3oc(=O)cc(C)c3cc2c1CN
TGI [1]: > 100 µM | TGI [2]: > 100 µM | TGI [3]: > 100 µM | TGI [4]: > 100 µM | TGI [5]: > 100 µM | TGI [6]: > 100 µM | TGI [7]: > 100 µM | TGI [8]: > 100 µM | TGI [9]: > 100 µM | TGI [10]: > 100 µM
